The IC50 is the concentration that inhibits the measured activity by half. A word on the half-life: it is the time needed for the level to fall by half in the phase considered. Lower therefore signals rapid decline. For orientation: MRT inf means a mean duration of stay, worked out from the concentration-time curve. Usually Cmax stands for the peak of the concentration-time curve. The term bioavailability denotes dose-corrected exposure relative to a reference, in per cent. A lower bioavailability goes with little systemic uptake. In general, AUC refers to the area under the concentration-time curve, a measure of exposure. A low value points to low exposure. As usually defined, the Tmax is the time at which the peak concentration occurs.

We go through 11 compounds from ChEMBL document CHEMBL5329199, “Discovery of novel dual Bruton's tyrosine kinase (BTK) and Janus kinase 3 (JAK3) inhibitors as a promising strategy for rheumatoid arthritis” (Bioorg Med Chem, 2023).

Each structure is given as a SMILES string.

In series [1] the test system is Daudi. The series can be described thus: Antiproliferative activity against human Daudi cells assessed as inhibition of cell growth incubated for 72 hrs by Cell Titer-Glo assay. The format is functional, cell-based. A general note: ATP-based viability assays read luminescence as a measure of living cells.
A short description of series [2]: Cytotoxicity against human L02 cells incubated for 24 hrs by MTT assay. The format is toxicity, cell-based. (Tetrazolium dyes change colour on reduction, which living cells bring about.)
The target of series [3] is Voltage-gated inwardly rectifying potassium channel KCNH2 (Homo sapiens, UniProt Q12809). Nature of the series: Inhibition of human ERG by patch clamp assay. A general note: In patch-clamp work, channel activity is measured electrically.
Series [4] can be described thus: Cytotoxicity against HUVEC cells incubated for 48 hrs by MTT assay. The format is toxicity, cell-based. As to conditions: human.
Series [5] in a line: Half life in Sprague-Dawley rat at 50 mg/kg, po by LC/MS analysis. The format is ADME, organism-based. As to conditions: in vivo.
Series [6] is described as follows: Observed MRT(infinity) in Sprague-Dawley rat at 5 mg/kg, iv measured for 720 mins by LC/MS analysis. The format is ADME, organism-based. The conditions noted are these: in vivo.
In series [7] the target is T1, Tyrosine-protein kinase JAK3 (Homo sapiens, UniProt P52333).
T1 sequence (P52333 whole entry): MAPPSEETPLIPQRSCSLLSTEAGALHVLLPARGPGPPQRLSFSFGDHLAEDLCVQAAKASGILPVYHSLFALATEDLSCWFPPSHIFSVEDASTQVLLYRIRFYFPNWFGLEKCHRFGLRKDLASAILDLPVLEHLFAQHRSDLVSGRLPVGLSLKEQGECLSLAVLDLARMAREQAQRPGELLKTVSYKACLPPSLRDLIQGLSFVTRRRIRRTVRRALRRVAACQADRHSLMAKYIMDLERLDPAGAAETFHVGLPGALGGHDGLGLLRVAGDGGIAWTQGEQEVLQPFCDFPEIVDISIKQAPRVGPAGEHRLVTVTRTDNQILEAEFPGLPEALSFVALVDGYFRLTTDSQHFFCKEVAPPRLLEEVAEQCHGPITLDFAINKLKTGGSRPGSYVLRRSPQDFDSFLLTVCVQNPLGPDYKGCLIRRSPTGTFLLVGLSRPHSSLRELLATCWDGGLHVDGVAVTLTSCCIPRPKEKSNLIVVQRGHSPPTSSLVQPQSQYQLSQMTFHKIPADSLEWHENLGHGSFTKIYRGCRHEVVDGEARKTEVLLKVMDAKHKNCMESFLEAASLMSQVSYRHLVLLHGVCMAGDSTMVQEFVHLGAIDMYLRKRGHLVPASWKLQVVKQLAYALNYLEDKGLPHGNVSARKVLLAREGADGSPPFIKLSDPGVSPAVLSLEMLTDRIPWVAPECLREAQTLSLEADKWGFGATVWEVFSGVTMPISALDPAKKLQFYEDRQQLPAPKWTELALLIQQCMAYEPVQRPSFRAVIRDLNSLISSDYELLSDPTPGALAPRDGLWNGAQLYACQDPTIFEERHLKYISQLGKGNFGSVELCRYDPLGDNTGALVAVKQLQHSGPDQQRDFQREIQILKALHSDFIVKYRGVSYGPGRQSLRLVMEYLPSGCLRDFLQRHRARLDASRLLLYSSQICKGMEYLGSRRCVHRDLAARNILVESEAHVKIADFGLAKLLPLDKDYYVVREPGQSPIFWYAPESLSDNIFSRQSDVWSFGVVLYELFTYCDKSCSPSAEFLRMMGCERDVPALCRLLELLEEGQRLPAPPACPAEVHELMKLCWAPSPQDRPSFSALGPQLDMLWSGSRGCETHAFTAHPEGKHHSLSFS
The series can be described thus: Inhibition of JAK3 (unknown origin) preincubated for 10 mins followed by kinase substrate and ATP addition and measured for 30 mins by mobility shift assay.

Series [8] can be described thus: Cmax in Sprague-Dawley rat at 50 mg/kg, po measured for 720 mins by LC/MS analysis. The conditions noted are these: in vivo. The format is ADME, organism-based. Also on record: dose 50 mg/kg, time 720 min, route po.
The nature of series [9]: Oral bioavailability in Sprague-Dawley rat at 50 mg/kg measured for 720 mins by LC/MS analysis. The format is ADME, organism-based. As to conditions: in vivo.
The nature of series [10]: Cytotoxicity against mouse RAW264.7 cells incubated for 12 hrs by MTT assay. The format is toxicity, cell-based.
Series [11] can be described thus: Acute toxicity in po dosed ICR mouse assessed as minimum lethal dose measured for 7 days. The format is organism-based. As to conditions: in vivo, 168 h, time 7 day.
Series [12] can be described thus: Cytotoxicity against human L02 cells incubated for 48 hrs by MTT assay. The format is toxicity, cell-based.
The nature of series [13]: AUC(all) in Sprague-Dawley rat at 50 mg/kg, po measured for 720 mins by LC/MS analysis. The conditions noted are these: in vivo. The arrangement: dose 50 mg/kg, time 720 min, route po. The format is ADME, organism-based.
A short description of series [14]: Cytotoxicity against human L02 cells incubated for 12 hrs by MTT assay. The format is toxicity, cell-based.
For series [15], the target named is Tyrosine-protein kinase BTK (Homo sapiens, UniProt Q06187). The series can be described thus: Inhibition of BTK (unknown origin) preincubated for 10 mins followed by kinase substrate and ATP addition and measured for 20 mins by mobility shift assay.
A short description of series [16]: Observed MRT(infinity) in Sprague-Dawley rat at 50 mg/kg, po measured for 720 mins by LC/MS analysis. As to conditions: in vivo. The format is ADME, organism-based.
Series [17] can be described thus: Cytotoxicity against rat NRK cells incubated for 48 hrs by MTT assay. The format is toxicity, cell-based.
A short description of series [18]: AUC(all) in Sprague-Dawley rat at 5 mg/kg, iv measured for 720 mins by LC/MS analysis. The format is ADME, organism-based. Also on record: time 720 min, dose 5 mg/kg, route iv. The conditions noted are these: in vivo.
Series [19] has as its system BaF3. The series can be described thus: Antiproliferative activity against mouse BaF3 cells expressing JAK3 mutant assessed as inhibition of cell growth incubated for 72 hrs by Cell Titer-Glo assay. The format is functional, cell-based. The conditions noted are these: BaF3, 72 h.
The target in series [20] is Non-receptor tyrosine-protein kinase TYK2 (Homo sapiens, UniProt P29597). The series can be described thus: Inhibition of TYK2 (unknown origin) using kinetic substrate in presence of ATP by mobility shift assay.
Series [21] is described as follows: Cytotoxicity against rat NRK cells incubated for 24 hrs by MTT assay. The format is toxicity, cell-based.
The nature of series [22]: Tmax in Sprague-Dawley rat at 50 mg/kg, po by LC/MS analysis. The format is ADME, organism-based. As to conditions: in vivo.
Series [23] in a line: Cytotoxicity against mouse RAW264.7 cells incubated for 48 hrs by MTT assay. The format is toxicity, cell-based.
Series [24] is described as follows: Cytotoxicity against rat NRK cells incubated for 12 hrs by MTT assay. The format is toxicity, cell-based.
In series [25] the target is Tyrosine-protein kinase JAK1 (Homo sapiens, UniProt P23458). The series can be described thus: Inhibition of JAK1 (unknown origin) using kinetic substrate in presence of ATP by mobility shift assay.
Series [26] is described as follows: Cytotoxicity against HUVEC cells incubated for 12 hrs by MTT assay. The format is toxicity, cell-based. The conditions noted are these: human.
Series [27] has as its target Tyrosine-protein kinase JAK2 (Homo sapiens, UniProt O60674). Nature of the series: Inhibition of JAK2 (unknown origin) using kinetic substrate in presence of ATP by mobility shift assay.
A short description of series [28]: Cytotoxicity against HUVEC cells incubated for 24 hrs by MTT assay. The format is toxicity, cell-based. As to conditions: human.
Series [29] is described as follows: Cytotoxicity against mouse RAW264.7 cells incubated for 24 hrs by MTT assay. The format is toxicity, cell-based.

Sequence of Tyrosine-protein kinase BTK (Q06187 whole entry): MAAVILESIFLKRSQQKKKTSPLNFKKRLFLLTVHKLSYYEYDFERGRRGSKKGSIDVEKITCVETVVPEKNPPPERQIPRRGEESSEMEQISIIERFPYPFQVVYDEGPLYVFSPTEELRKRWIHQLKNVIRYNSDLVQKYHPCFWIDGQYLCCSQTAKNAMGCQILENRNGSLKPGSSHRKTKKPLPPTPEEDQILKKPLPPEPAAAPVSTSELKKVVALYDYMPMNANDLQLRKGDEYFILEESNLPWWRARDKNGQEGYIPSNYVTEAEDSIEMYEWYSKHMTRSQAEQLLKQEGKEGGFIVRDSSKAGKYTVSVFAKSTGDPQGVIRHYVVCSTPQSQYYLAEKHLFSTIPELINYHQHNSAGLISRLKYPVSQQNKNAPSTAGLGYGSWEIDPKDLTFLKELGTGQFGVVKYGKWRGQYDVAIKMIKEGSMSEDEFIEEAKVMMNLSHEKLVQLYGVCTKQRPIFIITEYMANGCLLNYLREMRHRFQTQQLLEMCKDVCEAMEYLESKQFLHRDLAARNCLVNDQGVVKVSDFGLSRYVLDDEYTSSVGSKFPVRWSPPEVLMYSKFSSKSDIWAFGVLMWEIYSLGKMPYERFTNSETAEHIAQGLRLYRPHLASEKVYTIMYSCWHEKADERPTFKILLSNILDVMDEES
Sequence of Tyrosine-protein kinase JAK1 (P23458 whole entry): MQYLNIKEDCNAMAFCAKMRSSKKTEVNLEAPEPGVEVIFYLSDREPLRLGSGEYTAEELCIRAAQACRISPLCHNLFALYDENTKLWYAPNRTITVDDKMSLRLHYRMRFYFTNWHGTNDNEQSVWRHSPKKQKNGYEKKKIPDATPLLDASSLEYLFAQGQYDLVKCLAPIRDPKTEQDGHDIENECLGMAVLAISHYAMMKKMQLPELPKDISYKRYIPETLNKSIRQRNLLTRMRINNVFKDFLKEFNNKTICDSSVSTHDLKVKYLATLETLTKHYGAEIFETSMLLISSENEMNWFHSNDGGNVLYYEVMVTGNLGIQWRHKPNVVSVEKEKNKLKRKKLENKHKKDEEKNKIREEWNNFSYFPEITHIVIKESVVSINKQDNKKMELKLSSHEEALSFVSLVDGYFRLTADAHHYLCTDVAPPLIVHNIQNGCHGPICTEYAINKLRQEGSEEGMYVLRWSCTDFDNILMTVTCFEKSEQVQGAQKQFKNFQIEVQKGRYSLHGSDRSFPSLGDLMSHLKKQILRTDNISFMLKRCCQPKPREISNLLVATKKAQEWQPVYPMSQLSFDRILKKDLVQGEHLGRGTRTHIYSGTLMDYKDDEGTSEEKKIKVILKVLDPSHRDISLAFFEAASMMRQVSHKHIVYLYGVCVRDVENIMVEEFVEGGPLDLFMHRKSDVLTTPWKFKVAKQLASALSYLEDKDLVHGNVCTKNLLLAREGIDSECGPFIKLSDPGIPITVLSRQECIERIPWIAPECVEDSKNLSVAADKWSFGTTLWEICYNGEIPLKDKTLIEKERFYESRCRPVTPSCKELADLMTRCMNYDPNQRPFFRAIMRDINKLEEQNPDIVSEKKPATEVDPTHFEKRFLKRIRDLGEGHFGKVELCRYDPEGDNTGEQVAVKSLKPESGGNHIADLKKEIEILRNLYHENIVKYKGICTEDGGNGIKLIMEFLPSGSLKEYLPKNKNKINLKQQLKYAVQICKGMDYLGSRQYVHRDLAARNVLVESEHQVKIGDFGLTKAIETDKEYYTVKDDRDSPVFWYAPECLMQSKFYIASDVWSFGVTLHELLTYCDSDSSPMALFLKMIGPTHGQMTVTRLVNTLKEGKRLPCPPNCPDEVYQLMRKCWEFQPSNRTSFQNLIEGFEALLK
Sequence of Voltage-gated inwardly rectifying potassium channel KCNH2 (Q12809 whole entry): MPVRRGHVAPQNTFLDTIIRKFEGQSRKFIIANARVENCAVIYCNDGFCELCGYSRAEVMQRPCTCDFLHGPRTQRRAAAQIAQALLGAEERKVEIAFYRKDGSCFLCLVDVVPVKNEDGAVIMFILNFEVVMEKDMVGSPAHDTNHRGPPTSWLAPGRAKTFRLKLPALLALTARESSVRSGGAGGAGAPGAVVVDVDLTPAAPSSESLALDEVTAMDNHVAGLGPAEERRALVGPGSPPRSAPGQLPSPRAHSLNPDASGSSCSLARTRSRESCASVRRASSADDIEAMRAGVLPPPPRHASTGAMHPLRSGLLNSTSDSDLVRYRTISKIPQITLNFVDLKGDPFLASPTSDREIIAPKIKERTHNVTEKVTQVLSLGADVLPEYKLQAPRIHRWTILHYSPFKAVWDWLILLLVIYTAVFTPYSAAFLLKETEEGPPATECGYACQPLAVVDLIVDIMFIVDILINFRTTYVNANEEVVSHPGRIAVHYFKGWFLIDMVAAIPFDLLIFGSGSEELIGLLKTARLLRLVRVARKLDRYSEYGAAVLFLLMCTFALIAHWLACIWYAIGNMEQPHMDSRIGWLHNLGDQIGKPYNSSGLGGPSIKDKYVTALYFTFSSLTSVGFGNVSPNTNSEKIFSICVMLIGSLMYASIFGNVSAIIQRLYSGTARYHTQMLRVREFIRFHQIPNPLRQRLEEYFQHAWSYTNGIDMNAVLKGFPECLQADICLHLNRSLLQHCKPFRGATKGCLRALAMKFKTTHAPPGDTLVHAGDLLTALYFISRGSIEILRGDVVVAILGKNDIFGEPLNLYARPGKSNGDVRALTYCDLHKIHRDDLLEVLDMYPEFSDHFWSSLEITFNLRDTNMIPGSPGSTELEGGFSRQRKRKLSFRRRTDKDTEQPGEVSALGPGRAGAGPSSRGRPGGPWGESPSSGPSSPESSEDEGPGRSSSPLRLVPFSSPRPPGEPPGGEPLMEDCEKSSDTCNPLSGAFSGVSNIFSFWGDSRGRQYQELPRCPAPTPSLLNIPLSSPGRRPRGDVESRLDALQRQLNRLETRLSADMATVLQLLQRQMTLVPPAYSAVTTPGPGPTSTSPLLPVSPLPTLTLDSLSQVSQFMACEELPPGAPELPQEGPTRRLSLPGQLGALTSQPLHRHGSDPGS
Sequence of Tyrosine-protein kinase JAK2 (O60674 whole entry): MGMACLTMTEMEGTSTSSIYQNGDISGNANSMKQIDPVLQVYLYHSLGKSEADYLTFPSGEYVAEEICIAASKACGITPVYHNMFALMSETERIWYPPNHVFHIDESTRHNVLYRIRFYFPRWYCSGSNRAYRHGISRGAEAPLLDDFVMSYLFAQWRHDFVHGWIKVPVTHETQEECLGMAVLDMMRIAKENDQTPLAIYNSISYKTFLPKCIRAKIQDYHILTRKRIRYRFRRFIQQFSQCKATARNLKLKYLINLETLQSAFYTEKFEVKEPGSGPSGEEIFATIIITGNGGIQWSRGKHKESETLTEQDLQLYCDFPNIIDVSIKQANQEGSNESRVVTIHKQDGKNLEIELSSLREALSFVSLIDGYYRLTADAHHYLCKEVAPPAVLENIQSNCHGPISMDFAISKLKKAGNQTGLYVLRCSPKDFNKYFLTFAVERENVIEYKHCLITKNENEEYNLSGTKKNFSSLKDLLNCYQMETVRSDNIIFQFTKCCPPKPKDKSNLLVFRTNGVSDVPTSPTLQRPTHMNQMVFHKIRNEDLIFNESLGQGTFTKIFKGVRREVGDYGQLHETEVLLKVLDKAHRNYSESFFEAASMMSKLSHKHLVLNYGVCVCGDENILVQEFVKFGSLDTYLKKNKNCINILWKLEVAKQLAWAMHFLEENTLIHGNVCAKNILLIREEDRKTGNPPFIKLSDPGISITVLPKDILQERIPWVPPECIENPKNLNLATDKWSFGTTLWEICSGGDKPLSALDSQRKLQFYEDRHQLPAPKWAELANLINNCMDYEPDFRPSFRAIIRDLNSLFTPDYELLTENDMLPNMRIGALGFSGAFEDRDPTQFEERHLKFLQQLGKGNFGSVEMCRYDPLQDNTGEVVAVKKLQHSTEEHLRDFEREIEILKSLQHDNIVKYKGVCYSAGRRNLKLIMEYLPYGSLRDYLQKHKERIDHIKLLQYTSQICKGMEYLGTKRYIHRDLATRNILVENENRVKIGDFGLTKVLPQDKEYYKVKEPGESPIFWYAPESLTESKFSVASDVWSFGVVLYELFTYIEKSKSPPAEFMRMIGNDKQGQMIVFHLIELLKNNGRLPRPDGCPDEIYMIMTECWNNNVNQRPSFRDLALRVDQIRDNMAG

Consider `C=CC(=O)N1CCC[C@@H](n2nc(-c3ccc(NC(=O)c4ccc(N(C)C)cc4)c4c3OCO4)c3c(N)ncnc32)C1`, for which the IC50 in series [1] is 0.69 µM; in [3] it was 14.8 µM; in [7], 0.014 µM; in [15] it was 0.002 µM; in [19], 0.366 µM; in series [20], above 10 µM. Further, the IC50 in series [25] and in [27] was above 10 µM in each case. Also, the half-inhibitory concentration (IC50) at 24 h came out at 28.2 µM in [2], 15.7 µM in [21], 40.6 µM in series [28] and 50.6 µM in series [29]. The IC50 at 48 h in series [4] was 27.3 µM; in [12], 9.61 µM; in [17], 11.8 µM; in series [23], 19.7 µM. The same compound had a half-life in series [5] of 2.57 h. In addition, the mean residence time MRT inf is 9.36 min in [6] and 3.4 h in [16]. In series [8], this compound displayed a Cmax of 209 ng/mL. The compound further gave a bioavailability in series [9] of 13.2%. Further, the half-inhibitory concentration (IC50) at 12 h in [10] turned out to be 60.8 µM; in [14], 69.9 µM; in series [24], 51 µM; in series [26] it was 50 µM. Further, in [11], the MLD was above 1600 mg/kg. Also, the AUC at 12 h in [13] turned out to be 437 ng·h/mL; in series [18], 299 ng·h/mL. The Tmax in series [22] was found to be 0.459 h.
As to `C=CC(=O)N1CCC[C@@H](n2nc(-c3ccc(Oc4ccccc4)cc3)c3c(N)ncnc32)C1` [IBRUTINIB], the IC50 in [1] is 0.656 µM; in series [19] it was 1.43 µM. Further, in [11], the MLD was found to be 750 mg/kg.
For `C=CC(=O)N1CCC[C@@H](n2nc(-c3ccc(NC(=O)c4cccs4)c4c3OCO4)c3c(N)ncnc32)C1`, the IC50 was determined as 0.061 µM in series [7] and 0.0017 µM in series [15].
Turning to `C=CC(=O)N1CCC[C@@H](n2nc(-c3ccc(NC(=O)c4ccc(F)cc4)c4c3OCO4)c3c(N)ncnc32)C1`, the IC50 turned out to be 0.176 µM in [7] and 0.0009 µM in series [15].
Take `C=CC(=O)N1CCC[C@@H](n2nc(-c3ccc(NC(=O)c4ccc(C#N)cc4)c4c3OCO4)c3c(N)ncnc32)C1`: the IC50 in [7] worked out at 0.372 µM; in series [15], 0.0029 µM.
On the same counts, the results for `C=CC(=O)N1CCC[C@@H](n2nc(-c3ccc(NC(=O)c4ccc(C(F)(F)F)cc4)c4c3OCO4)c3c(N)ncnc32)C1` are 0.051 µM and 0.0018 µM.
Regarding `C=CC(=O)N1CCC[C@@H](n2nc(-c3ccc(NC(=O)c4ccccc4)c4c3OCO4)c3c(N)ncnc32)C1`, the IC50 in series [7] came out at 0.073 µM; in [15], 0.0013 µM.
Consider `C=CC(=O)N1CCC[C@@H](n2nc(-c3ccc(NC(=O)c4ccc(N(CC)CC)cc4)c4c3OCO4)c3c(N)ncnc32)C1`, for which the IC50 in [7] stood at 0.027 µM; in series [15], 0.0022 µM.
Take `C=CC(=O)N1CCC[C@@H](n2nc(-c3ccc(NC(=O)C45CCC(CC4)C5)c4c3OCO4)c3c(N)ncnc32)C1`: the IC50 in [7] stood at 0.5 µM; in series [15] it was 0.00148 µM.
As for `C=CC(=O)N1CCC[C@@H](n2nc(-c3ccc(NC(=O)c4ccc(-c5ccccc5)cc4)c4c3OCO4)c3c(N)ncnc32)C1`, the IC50 amounted to 0.12 µM in series [7] and 0.0021 µM in series [15].
As to `C=CC(=O)N1CCC[C@@H](n2nc(-c3ccc(NC(=O)c4ccccc4Cl)c4c3OCO4)c3c(N)ncnc32)C1`, the IC50 in series [7] was 0.106 µM; in series [15] it was 0.002 µM.
